In PubChem BioAssay (NCI):
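96-well plates; 48 h exposure; 5 concentrations. Endpoints by linear interpolation between flanking doses. Not reached: highest tested concentration assigned. The concentration for 50% growth inhibition is given as GI50. The concentration for full growth arrest is given as TGI.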

Key:
Assay in all cases: NCI-60 cell line screen, 48 h
SK-MEL-2 melanoma = test system: SK-MEL-2 melanoma
HT29 colon = test system: HT29 colon
HS 578T breast = test system: HS 578T breast
786-0 renal = test system: 786-0 renal
CAKI-1 renal = test system: CAKI-1 renal
OVCAR-4 ovarian = test system: OVCAR-4 ovarian
UO-31 renal = test system: UO-31 renal
EKVX NSCLC = test system: EKVX NSCLC
SN12C renal = test system: SN12C renal
HL-60(TB) leukemia = test system: HL-60(TB) leukemia

Row | SMILES | GI50 (SK-MEL-2 melanoma) | TGI (SK-MEL-2 melanoma) | GI50 (HT29 colon) | TGI (HT29 colon) | GI50 (HS 578T breast) | TGI (HS 578T breast) | GI50 (786-0 renal) | TGI (786-0 renal) | GI50 (CAKI-1 renal) | TGI (CAKI-1 renal) | GI50 (OVCAR-4 ovarian) | TGI (OVCAR-4 ovarian) | GI50 (UO-31 renal) | TGI (UO-31 renal) | GI50 (EKVX NSCLC) | TGI (EKVX NSCLC) | GI50 (SN12C renal) | TGI (SN12C renal) | TGI (HL-60(TB) leukemia) | GI50 (HL-60(TB) leukemia)
1 | Cc1ccc2c(-c3ccnc(Nc4cccc(C(F)(F)F)c4)n3)c(-c3ccccc3)nn2n1 | 6.28 µM | 14.3 µM | 2.28 µM | > 15.5 µM | 7.13 µM | > 25 µM | 4.67 µM | > 15.1 µM | 2.83 µM | > 25 µM | 12 µM | > 25 µM | 1.16 µM | > 25 µM | 10.5 µM | > 25 µM | 3.82 µM | > 15.5 µM |  | 
2 | CC(C)(C)c1cc(Cc2ccc(S(C)(=O)=O)cc2)c(O)c(C(C)(C)C)c1 |  | 30.4 µM |  | 28.6 µM |  |  |  | 29.6 µM |  | 29.8 µM |  | 28.1 µM |  | 29.6 µM |  | 28.4 µM |  | 28.6 µM | 42 µM | 
3 | O=C(Nc1ccc(Nc2ccc(NC(=O)c3ccccc3)c3c2C(=O)c2ccccc2C3=O)c2c1C(=O)c1ccccc1C2=O)c1ccccc1 |  | > 100 µM |  |  |  |  |  | > 100 µM |  | > 100 µM |  | > 100 µM |  | > 100 µM |  | > 100 µM |  | > 100 µM | > 100 µM | 
4 | Cc1cc(NS(=O)(=O)c2ccc(NC(=O)c3cccc4c(Nc5ccc(S(=O)(=O)Nc6cc(C)on6)cc5)c5ccc(Cl)cc5nc34)cc2)no1 |  | > 100 µM |  | > 100 µM |  |  |  | > 100 µM |  | > 100 µM |  | > 100 µM |  | 86.3 µM |  | > 100 µM |  | > 100 µM | > 100 µM | 
5 | O=C1CCC2(c3ccccc3)OCC([C@@H](O)c3ccccc3)N12 (stereo partly specified) |  | > 100 µM |  | > 100 µM |  |  |  | > 100 µM |  | > 100 µM |  | > 100 µM |  |  |  | > 100 µM |  | > 100 µM |  | 
6 | COc1ccc(C(=O)C(c2ccc(OC)cc2)C2(O)C(=O)Nc3c(Cl)cc(Cl)cc32)cc1 (stereo unspecified) |  | 31.5 µM |  | 42.4 µM |  |  |  | 29 µM |  | 49.6 µM |  | 20.1 µM |  | 62.2 µM |  | 38.9 µM |  | 35.6 µM | 19.7 µM | 
7 | c1ccc(-c2sc(-c3ccccc3)c3c2C(c2ccccc2)c2c(-c4ccccc4)sc(-c4ccccc4)c2C3c2ccccc2)cc1 (stereo unspecified) |  |  |  | > 100 µM |  |  |  | > 100 µM |  | > 100 µM |  | > 100 µM |  | > 100 µM |  | > 100 µM |  | > 100 µM | > 100 µM | 
8 | O=C1CC[C@@H](S(=O)(=O)c2ccccc2)[C@H](/C=C/c2ccccc2)O1 |  |  |  | > 100 µM |  |  |  | > 100 µM |  |  |  | > 100 µM |  | > 100 µM |  | > 100 µM |  | > 100 µM | > 100 µM | 
9 | Nc1nc2c(ncn2C2OC(CO)C(O)C2O)c(=O)o1 (stereo unspecified) |  | > 100 µM |  | > 100 µM |  |  |  | > 100 µM |  | > 100 µM |  | > 100 µM |  | > 100 µM |  | > 100 µM |  | > 100 µM | > 100 µM | 
10 | C=C1C2CCCC1C1(S(C)(=O)=O)CCCCC21O (stereo unspecified) |  | > 100 µM |  | > 100 µM |  |  |  | > 100 µM |  | > 100 µM |  | > 100 µM |  | > 100 µM |  | > 100 µM |  | > 100 µM |  | 
11 | Cc1cc(C)c([O-])c(-[n+]2c(-c3ccccc3)cc(-c3ccccc3)cc2-c2ccccc2)c1 |  | 10.2 µM |  | 12.2 µM |  |  |  | 19.7 µM |  | 22.1 µM |  | 18.5 µM |  | 33.7 µM |  | 21.4 µM |  | 18.5 µM | 4.16 µM | 
12 | CCP(C)(=O)CC |  | > 100 µM |  | > 100 µM |  |  |  | > 100 µM |  | > 100 µM |  | > 100 µM |  | > 100 µM |  | > 100 µM |  | > 100 µM | > 100 µM | 
13 | CCN1C[C@@H](C)n2c(c(O)c3c(=O)n(Cc4ccc(F)c(Cl)c4)nc(C(=O)NC)c32)C1=O | 2.11 µM | 4.53 µM | 3.9 µM | 15.5 µM | 2.48 µM | 7.42 µM | 2.91 µM | 8.4 µM | 3.03 µM | 16.6 µM | 3.18 µM | 44.6 µM | 2.43 µM | > 100 µM |  |  | 3.08 µM | > 100 µM |  | 
14 | CC1CN1c1c(C(=O)/C=C/c2ccc(F)cc2)c(-c2ccccc2)nn(C)c1=O (stereo unspecified) |  | 37.9 µM |  | 30.9 µM |  |  |  | 29.2 µM |  |  |  | 42.7 µM |  | 25.5 µM |  | 33.4 µM |  | 29.1 µM | 43 µM | 
15 | [CH3][Ge]([CH3])([CH2]CC#N)[S]c1ccccc1 | 14.7 µM | 39.6 µM | 17.8 µM | 32.9 µM |  |  | 17.1 µM | 32.8 µM | 21.3 µM | 43.7 µM | 18.6 µM | 50 µM | 10.5 µM | 22.3 µM | 7.28 µM | 66.2 µM | 15.2 µM | 31.6 µM | 11.9 µM | 2.2 µM
16 | CN(C)Cc1ccc(O)c(CN(C)C)n1 |  | > 100 µM |  | > 100 µM |  | > 100 µM |  | > 100 µM |  | > 100 µM |  | > 100 µM |  | > 100 µM |  | > 100 µM |  | > 100 µM |  | 
17 | CCNCCS(=O)(=O)NC[C@@]1(c2ccccc2)SC(NC(=O)C(C)(C)C)=NN1C(=O)C(C)(C)C | < 0.01 µM | 28.4 µM | < 0.01 µM | > 100 µM | < 0.01 µM | > 100 µM | 0.341 µM | > 100 µM | 0.694 µM | > 100 µM | 35.5 µM | > 100 µM | 18.8 µM | > 100 µM | < 0.0314 µM | > 100 µM | < 0.01 µM | > 100 µM |  | 
18 | CCCCN(CCCC)CC(C(=O)Nc1ccc([N+](=O)[O-])cc1[N+](=O)[O-])/C(C)=N\NC(=O)c1ccncc1 (stereo unspecified) |  | > 100 µM |  |  |  |  |  | > 100 µM |  | > 100 µM |  | > 100 µM |  | > 100 µM |  | > 100 µM |  | > 100 µM | > 100 µM | 
19 | COC1(OC)CCC2(C)OC(c3ccccc3)C1O2 (stereo unspecified) |  | > 100 µM |  | > 100 µM |  |  |  | > 100 µM |  | > 100 µM |  | > 100 µM |  | > 100 µM |  | > 100 µM |  | > 100 µM | > 100 µM | 
